In US10544143B2, “4-azaindole compounds” (BRISTOL-MYERS SQUIBB COMPANY, priority 2017, dated 2020):
Where two headings read alike, the source gives them in different places.

How the values were obtained:
[1] = target: human TLR9 (Homo sapiens (Human), UniProt Q9NR96); assay: TLR9 inhibition reporter assay (HEK-Blue SEAP); details: read-out: TLR9 IC50;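 also: SEAP driven by an IFN-β minimal promoter with NF-κB and AP-1 sites, read after 22 h, compounds dosed 0.05 nM–50 µM, inhibition scaled between agonist plus DMSO and reference-inhibitor wells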
Chain of human TLR9 (Q9NR96 26-1032): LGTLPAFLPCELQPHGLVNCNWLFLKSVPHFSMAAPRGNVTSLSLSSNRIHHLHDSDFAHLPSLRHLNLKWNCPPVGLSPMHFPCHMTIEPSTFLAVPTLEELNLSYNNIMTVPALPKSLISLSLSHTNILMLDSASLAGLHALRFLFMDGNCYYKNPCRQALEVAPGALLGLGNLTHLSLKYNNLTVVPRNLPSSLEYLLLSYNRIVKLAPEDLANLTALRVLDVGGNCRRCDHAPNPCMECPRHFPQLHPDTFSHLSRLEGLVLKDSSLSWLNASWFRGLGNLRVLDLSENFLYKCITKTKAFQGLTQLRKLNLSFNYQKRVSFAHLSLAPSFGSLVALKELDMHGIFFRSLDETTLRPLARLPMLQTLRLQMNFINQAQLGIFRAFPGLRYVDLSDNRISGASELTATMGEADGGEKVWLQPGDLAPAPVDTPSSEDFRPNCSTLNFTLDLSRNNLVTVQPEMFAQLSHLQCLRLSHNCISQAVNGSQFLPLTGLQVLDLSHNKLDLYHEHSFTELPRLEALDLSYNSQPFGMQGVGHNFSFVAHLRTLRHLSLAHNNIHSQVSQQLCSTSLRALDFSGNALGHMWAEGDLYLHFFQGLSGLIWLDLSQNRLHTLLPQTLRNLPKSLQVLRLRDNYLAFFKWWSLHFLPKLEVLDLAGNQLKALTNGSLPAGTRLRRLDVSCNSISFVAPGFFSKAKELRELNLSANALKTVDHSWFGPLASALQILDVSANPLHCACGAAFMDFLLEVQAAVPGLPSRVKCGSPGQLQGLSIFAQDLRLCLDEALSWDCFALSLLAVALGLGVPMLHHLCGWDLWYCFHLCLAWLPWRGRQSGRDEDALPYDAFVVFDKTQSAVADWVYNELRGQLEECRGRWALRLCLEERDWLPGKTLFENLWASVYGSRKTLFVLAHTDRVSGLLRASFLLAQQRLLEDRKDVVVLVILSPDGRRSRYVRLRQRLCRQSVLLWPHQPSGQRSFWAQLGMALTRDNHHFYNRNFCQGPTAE

[2] = target: human TLR7 (Homo sapiens (Human), UniProt Q9NYK1); assay: TLR7 inhibition reporter assay (HEK-Blue SEAP); format: cell-based
Chain of human TLR7 (Q9NYK1 27-1049): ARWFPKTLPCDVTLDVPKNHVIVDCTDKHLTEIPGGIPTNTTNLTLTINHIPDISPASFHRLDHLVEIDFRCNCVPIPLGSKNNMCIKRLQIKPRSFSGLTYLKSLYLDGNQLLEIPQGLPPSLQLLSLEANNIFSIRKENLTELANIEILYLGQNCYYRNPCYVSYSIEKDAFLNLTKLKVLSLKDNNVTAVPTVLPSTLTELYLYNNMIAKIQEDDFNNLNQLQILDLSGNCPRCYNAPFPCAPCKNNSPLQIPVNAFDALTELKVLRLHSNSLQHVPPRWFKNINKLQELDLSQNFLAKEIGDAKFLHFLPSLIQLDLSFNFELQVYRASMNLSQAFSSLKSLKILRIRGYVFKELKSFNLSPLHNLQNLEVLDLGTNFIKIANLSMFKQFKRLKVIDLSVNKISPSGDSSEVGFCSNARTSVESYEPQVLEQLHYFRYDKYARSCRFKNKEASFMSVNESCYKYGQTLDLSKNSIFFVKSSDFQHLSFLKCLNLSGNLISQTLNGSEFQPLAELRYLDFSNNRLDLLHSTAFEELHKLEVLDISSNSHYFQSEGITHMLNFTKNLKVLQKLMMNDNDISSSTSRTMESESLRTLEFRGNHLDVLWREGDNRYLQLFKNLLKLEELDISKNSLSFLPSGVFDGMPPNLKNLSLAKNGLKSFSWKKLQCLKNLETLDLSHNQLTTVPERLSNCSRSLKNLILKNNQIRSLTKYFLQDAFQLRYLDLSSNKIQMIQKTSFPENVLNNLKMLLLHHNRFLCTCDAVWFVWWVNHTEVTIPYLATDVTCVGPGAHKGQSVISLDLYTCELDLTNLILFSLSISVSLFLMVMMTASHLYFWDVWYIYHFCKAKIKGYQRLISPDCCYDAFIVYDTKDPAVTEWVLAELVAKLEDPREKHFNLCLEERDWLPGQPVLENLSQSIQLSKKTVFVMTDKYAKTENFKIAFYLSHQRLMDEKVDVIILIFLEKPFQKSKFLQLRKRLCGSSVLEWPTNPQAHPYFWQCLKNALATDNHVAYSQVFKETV

[3] = target: human TLR8 (Homo sapiens (Human), UniProt Q9NR97); assay: TLR8 inhibition reporter assay (HEK-Blue SEAP); details: read-out: TLR8 IC50;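 also: SEAP driven by IFN-β minimal promoter carrying NF-κB and AP-1 sites, compounds dosed 0.05 nM to 50 µM for 22 h, inhibition scaled between agonist-plus-DMSO and reference-inhibitor wells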
Chain of human TLR8 (Q9NR97 27-1041): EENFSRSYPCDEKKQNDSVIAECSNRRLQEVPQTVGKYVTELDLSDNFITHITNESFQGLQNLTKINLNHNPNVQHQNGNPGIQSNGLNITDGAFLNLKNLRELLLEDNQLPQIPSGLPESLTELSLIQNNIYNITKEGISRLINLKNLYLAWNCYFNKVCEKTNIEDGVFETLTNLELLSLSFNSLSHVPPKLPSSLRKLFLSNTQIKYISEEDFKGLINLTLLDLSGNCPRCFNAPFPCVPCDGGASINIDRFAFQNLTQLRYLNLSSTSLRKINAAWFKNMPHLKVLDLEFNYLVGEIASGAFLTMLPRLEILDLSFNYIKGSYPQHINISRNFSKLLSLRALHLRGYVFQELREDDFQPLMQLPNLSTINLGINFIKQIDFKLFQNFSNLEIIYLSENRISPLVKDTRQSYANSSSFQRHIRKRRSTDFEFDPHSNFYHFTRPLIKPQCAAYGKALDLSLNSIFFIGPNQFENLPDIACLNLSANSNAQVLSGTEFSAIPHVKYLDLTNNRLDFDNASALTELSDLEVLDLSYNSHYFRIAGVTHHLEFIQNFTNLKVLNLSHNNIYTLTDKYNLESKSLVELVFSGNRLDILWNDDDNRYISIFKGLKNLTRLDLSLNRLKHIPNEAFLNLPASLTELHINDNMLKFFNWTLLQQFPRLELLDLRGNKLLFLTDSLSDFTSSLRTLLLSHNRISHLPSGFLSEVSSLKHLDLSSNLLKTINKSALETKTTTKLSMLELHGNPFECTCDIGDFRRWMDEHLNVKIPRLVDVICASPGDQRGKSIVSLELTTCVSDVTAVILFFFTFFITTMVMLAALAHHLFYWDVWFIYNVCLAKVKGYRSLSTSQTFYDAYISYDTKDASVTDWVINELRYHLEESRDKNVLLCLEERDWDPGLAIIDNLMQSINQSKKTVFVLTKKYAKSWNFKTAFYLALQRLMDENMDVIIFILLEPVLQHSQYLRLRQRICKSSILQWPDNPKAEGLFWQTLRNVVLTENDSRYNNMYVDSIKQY

[4] = HEK-Blue cells overexpressing human TLR9, ODN2006 5 nM stimulation, SEAP reporter
[5] = HEK-Blue cells overexpressing human TLR7, gardiquimod 7.5 μM stimulation, SEAP reporter
[6] = HEK-Blue cells overexpressing human TLR8, R848 15.9 μM stimulation, SEAP reporter
[7] = HEK-Blue cells overexpressing human TLR9, SEAP reporter, ODN2006 5 nM
[8] = HEK-Blue cells overexpressing human TLR7, SEAP reporter, gardiquimod 7.5 μM
[9] = HEK-Blue cells overexpressing human TLR8, SEAP reporter, R848 15.9 μM
[10] = HEK-Blue human TLR9 cells, ODN2006 5 nM
[11] = HEK-Blue human TLR7 cells, gardiquimod 7.5 μM
[12] = HEK-Blue human TLR8 cells, R848 15.9 μM

Compound | IC50 [1, 4] | IC50 [2, 5] | IC50 [3, 6] | IC50 [1, 7] | IC50 [2, 8] | IC50 [3, 9] | further results
Cc1c(-c2[nH]c3ccc(C4CCC(N5CCOCC5)CC4)nc3c2C(C)C)cn2ncnc2c1C (stereo not drawn) [Example 362] | 1630 nM | 1.6 nM | 5.1 nM | – | – | – | –
COc1cc(-c2[nH]c3cc(C)c(C4CCC(N(C)CCC#N)CC4)nc3c2C(C)C)cn2ncnc12 (stereo not drawn) [Example 340] | 1870 nM | 1.4 nM | 51 nM | – | – | – | –
Cc1c(-c2[nH]c3ccc(C4CCC(N(CCO)CC(=O)N(C)C)CC4)nc3c2C(C)C)cn2ncnc2c1C (stereo not drawn) [Example 463] | – | – | – | 16000 nM | 7.4 nM | 24 nM | –
COc1cc(-c2[nH]c3ccc(N4CCN(CCS(C)(=O)=O)CC4)nc3c2C(C)C)cn2ncnc12 [Example 95] | > 50000 nM | 4.9 nM | 3.6 nM | – | – | – | –
Cc1c(-c2[nH]c3ccc(C4CCN(CC(C)(C)O)CC4)nc3c2C(C)C)cn2ncnc2c1C [Example 541] | – | – | – | 1430 nM | 1.2 nM | 0.36 nM | –
CCN(CC)CC(=O)N1CCN(c2ccc3[nH]c(-c4cn5ncnc5c(C)c4C)c(C(C)C)c3n2)C[C@@H]1C [Example 898] | – | – | – | – | – | – | IC50 [1, 10]: 17300 nM; IC50 [2, 11]: 2.1 nM; IC50 [3, 12]: 3.2 nM
Cc1c(-c2[nH]c3ccc(N4CCN(C(=O)CN(C)C(C)C)C[C@H]4C)nc3c2C(C)C)cn2ncnc2c1C [Example 933] | – | – | – | – | – | – | IC50 [1, 10]: 18400 nM; IC50 [2, 11]: 0.63 nM; IC50 [3, 12]: 18 nM
COc1cc(-c2[nH]c3ccc(N4CCN(C5CCC(O)CC5)CC4)nc3c2C(C)C)cn2ncnc12 (stereo not drawn) [Example 113] | 3360 nM | 1.4 nM | 0.95 nM | – | – | – | –
Cc1c(-c2[nH]c3ccc(N4C[C@H](C)N(C(=O)CCN(C)C)[C@@H](C)C4)nc3c2C(C)C)cn2ncnc2c1C [Example 761] | – | – | – | 8170 nM | 9 nM | 14 nM | –
CC(C)c1c(-c2cn(C)c3ncccc23)[nH]c2ccc(N3CCC(NCCS(C)(=O)=O)CC3)nc12 [Example 53] | 1990 nM | 0.62 nM | 0.23 nM | – | – | – | –
Cc1cc2[nH]c(-c3cc(C)c4ncnn4c3)c(C(C)C)c2nc1C1CCN(C(=O)CN(C)C)CC1 [Example 586] | – | – | – | 2900 nM | 0.75 nM | 98 nM | –
Cc1c(-c2[nH]c3ccc(N4CCN(C5COC5)C[C@@H]4C)nc3c2C(C)C)cn2ncnc2c1C [Example 813] | – | – | – | – | – | – | IC50 [1, 10]: > 50000 nM; IC50 [2, 11]: 3.7 nM; IC50 [3, 12]: 9.1 nM
COc1cc(-c2[nH]c3ccc(C4CCC(NC(=O)C5CCN(C)CC5)C4)nc3c2C(C)C)cn2ncnc12 (stereo not drawn) [Example 714] | – | – | – | 203 nM | 1.8 nM | 9.3 nM | –
COc1cc(-c2[nH]c3cc(F)c(C4CCN(C5COC5)CC4)nc3c2C(C)C)cn2ncnc12 [Example 574] | – | – | – | 11900 nM | 3 nM | 47 nM | –
COc1cc(-c2[nH]c3cc(C)c(C4CCC(NC5(C)COC5)CC4)nc3c2C(C)C)cn2ncnc12 (stereo not drawn) [Example 310] | 1780 nM | 0.39 nM | 4.1 nM | – | – | – | –
Cc1c(-c2[nH]c3ccc(N4C[C@@H](C)N(C(C)C)C[C@@H]4C)nc3c2C(C)C)cn2ncnc2c1C [Example 844] | – | – | – | – | – | – | IC50 [1, 10]: 8820 nM; IC50 [2, 11]: 2 nM; IC50 [3, 12]: 11 nM
Cc1c(-c2[nH]c3ccc(N4CC5(CN(CCC#N)C5)C4)nc3c2C(C)C)cn2ncnc2c1C [Example 1014] | – | – | – | – | – | – | IC50 [1, 10]: 21900 nM; IC50 [2, 11]: 21 nM; IC50 [3, 12]: 26 nM
Cc1c(-c2[nH]c3ccc(C4CCC5(CC4)CN(C(C)C)C5)nc3c2C(C)C)cn2ncnc2c1C [Example 493] | – | – | – | > 50000 nM | 1760 nM | 3790 nM | –
Cc1c(-c2[nH]c3ccc(C4CCC(N(C)C)CC4)nc3c2C(C)C)cn2ncnc2c1C (stereo not drawn) [Example 353] | 940 nM | 0.64 nM | 0.96 nM | – | – | – | –
CC(C)c1c(-c2cn(CC#N)c3ncccc23)[nH]c2ccc(C3CCC(NC4CCCOC4)CC3)nc12 (stereo not drawn) [Example 274] | 474 nM | 8.5 nM | 3.7 nM | – | – | – | –
CCN(CC(=O)N1CCN(c2ccc3[nH]c(-c4cn5ncnc5c(C)c4C)c(C(C)C)c3n2)CC1)C(C)C [Example 879] | – | – | – | – | – | – | IC50 [1, 10]: 7550 nM; IC50 [2, 11]: 1 nM; IC50 [3, 12]: 3.4 nM
COc1cc(-c2[nH]c3ccc(C4CC(N(C)C)C4)nc3c2C(C)C)cn2ncnc12 (stereo not drawn) [Example 629] | – | – | – | 1920 nM | 2.6 nM | 6.5 nM | –
CCCCN(CC(=O)N1CCN(c2ccc3[nH]c(-c4cn5ncnc5c(C)c4C)c(C(C)C)c3n2)CC1)C(C)C [Example 882] | – | – | – | – | – | – | IC50 [1, 10]: 7760 nM; IC50 [2, 11]: 3.3 nM; IC50 [3, 12]: 11 nM
COc1cc(-c2[nH]c3ccc(C4CCC(N(CC(N)=O)CC(N)=O)C4)nc3c2C(C)C)cn2ncnc12 (stereo not drawn) [Example 708] | – | – | – | > 50000 nM | 12 nM | 280 nM | –
